Measured values reported in publication PMC10847043, “Engineered probiotic overcomes pathogen defences using signal interference and antibiotic production to treat infection in mice” (Nature Microbiology, 2024).

Test system: GAS
Experiment: time-dependent killing (bactericidal) assay
Format: cell-based, Streptococcus pyogenes
Details: 10× MIC; exponential phase GAS
Experimental: GAS grown to exponential phase was diluted to 10^5 CFUs ml^−1. […] A 100-µl aliquot was collected at each timepoint, cells were centrifuged and pellets were resuspended in 100 µl phosphate-buffered saline (PBS). Cells were serially diluted and plated on blood agar plates. After overnight incubation at 37 °C, CFUs were enumerated and reported as CFUs ml^−1. […] Bactericidal assays were performed in biological triplicate.

CC1(C)S[C@@H]2[C@H](NC(=O)Cc3ccccc3)C(=O)N2[C@H]1C(=O)O [penicillin G]
killing of GAS, in words: complete killing
